Laboratory results: patent publication US7297535B2, “Use of the human LRP/MVP promotor for a vector that can be induced by therapy” (Max-Delbrück-Centrum Für Molekulare Medizin, priority 2000, dated 2007)

Test system: LRP/MVP promoter
Experiment: Inducibility of LRP/MVP promoter by cytostatics (CAT expression)
Type: cell-based, human
Conditions: for inducibility of the human LRP/MVP gene promoter by therapy-relevant factors: general statement, no details given

| Compound | induction of LRP/MVP-promoter-mediated CAT expression (24 h after cytostatic administration, FIG. 2) | inducibility of the human LRP/MVP gene promoter by therapy-relevant factors |
| --- | --- | --- |
| O=c1[nH]cc(F)c(=O)[nH]1 [5-fluoruracil] | induced | inductors |
| COc1cccc2c1C(=O)c1c(O)c3c(c(O)c1C2=O)C[C@@](O)(C(=O)CO)C[C@@H]3O[C@H]1C[C@H](N)[C@H](O)[C@H](C)O1 [adriamycin] | – | inductors |
| N.N.[Cl][Pt][Cl] [cisplatin] | – | inductors |
| CC[C@]1(O)C[C@H]2CN(CCc3c([nH]c4ccccc34)[C@@](C(=O)OC)(c3cc4c(cc3OC)N(C=O)[C@H]3[C@@](O)(C(=O)OC)[C@H](OC(C)=O)[C@]5(CC)C=CCN6CC[C@]43[C@@H]65)C2)C1 [vincristin] | – | inductors |
